Experimental findings from patent publication US4698352A, “4-oxo-1,4-dihydronicotinic acid derivatives, salts thereof, and antibacterial agents containing the same” (Toyama Chemical Co., Ltd., priority 1982, dated 1987) are described below.

Common to all, as to assay: Antibacterial activity (MIC), agar dilution
Holding throughout (assay type): cell-based

One experiment has as its system Kl. pneumoniae Y-4*. As to conditions: Klebsiella pneumoniae, 20 h, Kl. pneumoniae Y-4, penicillinase-producing; 10^6 cells per ml; read-out: MIC. An excerpt:
(§1) The amount of bacteria inoculated was 10^4 cells per plate (10^6 cells per ml).
(§2) * Penicillinase-producing bacteria

The test system of the next experiment is St. aureus F-137*. As to conditions: Staphylococcus aureus, 20 h, St. aureus F-137, penicillinase-producing; 10^6 cells per ml; read-out: MIC.
Source text: as §1, §2

A further experiment concerns Ps. aeruginosa GN3379*. The settings on record: Pseudomonas aeruginosa, 20 h; Ps. aeruginosa GN3379, penicillinase-producing; 10^6 cells per ml; read-out: MIC.
Source text: as §1, §2

A further experiment relates to E. coli TK-3*. As to conditions: Escherichia coli, 20 h, E. coli TK-3, penicillinase-producing; 10^6 cells per ml; read-out: MIC.
Source text: as §1, §2

Another experiment concerns Pro. vulgaris GN3027. As to conditions: Proteus vulgaris, GN3027, 20 h, Pro. vulgaris GN3027; 10^6 cells per ml; 37° C., 20 hours; read-out: MIC.
Source text: as §1

In a further experiment the test system is Ent. cloacae IID977. As to conditions: Enterobacter cloacae, IID977, 20 h, Ent. cloacae IID977; 10^6 cells per ml; 37° C., 20 hours; read-out: MIC.
Source text: as §1

Another experiment concerns St. aureus FDA209P. As to conditions: Staphylococcus aureus, FDA209P, 20 h.
Source text: as §1

The next experiment has as its system Pro. morganii T-216. As to conditions: Morganella morganii, 37° C.
Source text: as §1

Another experiment deals with Ps. aeruginosa S-68. The settings on record: Pseudomonas aeruginosa, S68; Ps. aeruginosa S-68; 10^6 cells per ml; 37° C., 20 hours; read-out: MIC.
Source text: as §1

For another experiment, the system named is E. coli TK-111. As to conditions: Escherichia coli, TK111, 20 h, E. coli TK-111; 10^6 cells per ml; 37° C., 20 hours; read-out: MIC.
Source text: as §1

Another experiment relates to Ps. aeruginosa IFO3445. The settings on record: Pseudomonas aeruginosa; Ps. aeruginosa IFO3445; 10^6 cells per ml; 37° C., 20 hours; read-out: MIC.
Source text: as §1

The next experiment concerns Pro. mirabilis T-111. The settings on record: Proteus mirabilis, 37° C.
Source text: as §1

The test system of a further experiment is E. coli NIHJ JC-2. The settings on record: Escherichia coli, NIHJJC2, 20 h.
Source text: as §1

A further experiment has as its system Aci. antitratus A-6. As to conditions: 20 h, Aci. antitratus A-6; 10^6 cells per ml; 37° C., 20 hours; read-out: MIC.
Source text: as §1

The subject of a further experiment is Kl. pneumoniae Y-50. The settings on record: Klebsiella pneumoniae, Y50, 20 h, 10^6 cells per ml, 37° C., read-out: MIC.
Source text: as §1

The test system of another experiment is Kl. pneumoniae Y-41. As to conditions: Klebsiella pneumoniae, Y41, 10^6 cells per ml, 37° C., 20 hours, read-out: MIC.
Source text: as §1

A further experiment concerns Pro. vulgaris GN76**. The settings on record: Proteus vulgaris, 20 h; Pro. vulgaris GN76, cephalospolinase-producing; 10^6 cells per ml; read-out: MIC.
Source text: as §1
(§3) ** Cephalospolinase-producing bacteria

For a further experiment, the system named is Ps. aeruginosa GN918**. The settings on record: Pseudomonas aeruginosa, Ps. aeruginosa GN918, cephalospolinase-producing, 10^6 cells per ml.
Source text: as §1, §3

In a further experiment the test system is E. coli GN5482**. As to conditions: Escherichia coli.
Source text: as §1, §3

Setting [1] is: T216, 10^6 cells per ml, 20 hours, read-out: MIC.
Where [2] appears, read: St. aureus FDA209P, 10^6 cells per ml, 37° C., 20 hours, read-out: MIC.
The mark [3] stands for this setting: T111, 10^6 cells per ml, 20 hours, read-out: MIC.
Setting [4] is: E. coli NIHJ JC-2, 10^6 cells per ml, 37° C., 20 hours, read-out: MIC.
The mark [5] stands for this setting: 20 h, E. coli GN5482, cephalospolinase-producing, 10^6 cells per ml, read-out: MIC.

The structures appear in SMILES notation. ≈ marks a conversion by molar mass, not a printed value. Like-named read-outs stand apart in the source and are kept apart here. Bounds are passed on as bounds.

Turning to `CC1Cc2cc(-c3cc(=O)c(C(=O)O)cn3-c3ccc(O)cc3)ccc2O1` (stereo not shown), the minimum inhibitory concentration (MIC) in the experiment on Kl. pneumoniae Y-4* came out at 12.5 µg/mL (≈ 34.4 µM); in the experiment on St. aureus F-137* it was 3.13 µg/mL (≈ 8.61 µM); in the experiment on Ps. aeruginosa GN3379*, 25 µg/mL (≈ 68.8 µM); in the experiment with E. coli TK-3*, 3.13 µg/mL (≈ 8.61 µM); in the experiment with Pro. vulgaris GN3027, 0.78 µg/mL (≈ 2.15 µM); with Ent. cloacae IID977, 3.13 µg/mL (≈ 8.61 µM). Further, the MIC came to 1.56 µg/mL (≈ 4.29 µM) in the experiment with St. aureus FDA209P; 3.13 µg/mL (≈ 8.61 µM) with Pro. morganii T-216 (setting [1]); 25 µg/mL (≈ 68.8 µM) with Ps. aeruginosa S-68; 0.78 µg/mL (≈ 2.15 µM) with E. coli TK-111; 50 µg/mL (≈ 138 µM) with Ps. aeruginosa IFO3445; 12.5 µg/mL (≈ 34.4 µM) in the experiment with Pro. mirabilis T-111 (T111, 20 h, 10^6 cells per ml). Moreover, the MIC turned out to be 1.56 µg/mL (≈ 4.29 µM) against E. coli NIHJ JC-2; 3.13 µg/mL (≈ 8.61 µM) in the experiment on Aci. antitratus A-6; 1.56 µg/mL (≈ 4.29 µM) in the experiment on Kl. pneumoniae Y-50; 6.25 µg/mL (≈ 17.2 µM) in the experiment on Kl. pneumoniae Y-41; 3.13 µg/mL (≈ 8.61 µM) in the experiment on Pro. vulgaris GN76**; 12.5 µg/mL (≈ 34.4 µM) with Ps. aeruginosa GN918** (GN918, 20 h). In the experiment on E. coli GN5482** (GN5482, 20 h), this compound had an MIC of 1.56 µg/mL (≈ 4.29 µM).
On to `Cn1ccc2cc(-c3cc(=O)c(C(=O)O)cn3-c3ccc(O)cc3F)ccc21`, for which the MIC in the experiment with Kl. pneumoniae Y-4* is 0.78 µg/mL (≈ 2.06 µM); with St. aureus F-137* it was no more than 0.05 µg/mL; in the experiment on Ps. aeruginosa GN3379* it was 3.13 µg/mL (≈ 8.27 µM); in the experiment with E. coli TK-3* it was 0.2 µg/mL (≈ 0.529 µM); in the experiment with Pro. vulgaris GN3027, no more than 0.05 µg/mL; in the experiment with Ent. cloacae IID977 it was 0.39 µg/mL (≈ 1.03 µM). Also, the MIC in the experiment with St. aureus FDA209P (setting [2]) was 0.05 µg/mL (≈ 0.132 µM); in the experiment on Pro. morganii T-216 (setting [1]), 0.39 µg/mL (≈ 1.03 µM); with Ps. aeruginosa S-68, 1.56 µg/mL (≈ 4.12 µM); in the experiment with E. coli TK-111, no more than 0.05 µg/mL; in the experiment on Ps. aeruginosa IFO3445 it was 1.56 µg/mL (≈ 4.12 µM); with Pro. mirabilis T-111 (setting [3]), 0.39 µg/mL (≈ 1.03 µM). Besides, the MIC with E. coli NIHJ JC-2 (setting [4]) was no more than 0.05 µg/mL; in the experiment with Aci. antitratus A-6 it was no more than 0.05 µg/mL; in the experiment on Kl. pneumoniae Y-50, 0.2 µg/mL (≈ 0.529 µM); in the experiment with Kl. pneumoniae Y-41, 0.39 µg/mL (≈ 1.03 µM); in the experiment with Pro. vulgaris GN76** it was 0.39 µg/mL (≈ 1.03 µM); in the experiment with Ps. aeruginosa GN918** (20 h, read-out: MIC) it was 0.78 µg/mL (≈ 2.06 µM). The MIC in the experiment on E. coli GN5482** (setting [5]) was no more than 0.05 µg/mL.
Turning to `CC(=O)Oc1ccc(-n2cc(C(=O)OCCN(C)C)c(=O)cc2-c2ccc3c(ccn3C)c2)c(F)c1`, the MIC is 3.13 µg/mL (≈ 6.37 µM) in the experiment on Kl. pneumoniae Y-4*; no more than 0.05 µg/mL in the experiment on St. aureus F-137*; 12.5 µg/mL (≈ 25.4 µM) in the experiment on Ps. aeruginosa GN3379*; 0.39 µg/mL (≈ 0.793 µM) with E. coli TK-3*; 0.1 µg/mL (≈ 0.203 µM) in the experiment on Pro. vulgaris GN3027; 0.78 µg/mL (≈ 1.59 µM) in the experiment on Ent. cloacae IID977. Also, the MIC in the experiment on St. aureus FDA209P (setting [2]) was no more than 0.05 µg/mL; against Pro. morganii T-216 (T216, 20 h, 10^6 cells per ml) it was 3.13 µg/mL (≈ 6.37 µM); in the experiment on Ps. aeruginosa S-68, 6.25 µg/mL (≈ 12.7 µM); in the experiment on E. coli TK-111, no more than 0.05 µg/mL; in the experiment with Ps. aeruginosa IFO3445, 6.25 µg/mL (≈ 12.7 µM); with Pro. mirabilis T-111 (setting [3]), 1.56 µg/mL (≈ 3.17 µM). Also, the MIC in the experiment with E. coli NIHJ JC-2 (setting [4]) amounted to 0.1 µg/mL (≈ 0.203 µM); with Aci. antitratus A-6, 0.39 µg/mL (≈ 0.793 µM); in the experiment with Kl. pneumoniae Y-50, 0.39 µg/mL (≈ 0.793 µM); with Kl. pneumoniae Y-41, 3.13 µg/mL (≈ 6.37 µM); in the experiment with Pro. vulgaris GN76**, 0.78 µg/mL (≈ 1.59 µM); in the experiment with Ps. aeruginosa GN918** (20 h, read-out: MIC), 1.56 µg/mL (≈ 3.17 µM). In addition, the minimal inhibitory concentration (MIC) in the experiment with E. coli GN5482** (setting [5]) was no more than 0.05 µg/mL.
In the case of `Cc1cc(O)ccc1-n1cc(C(=O)O)c(=O)cc1-c1ccc2c(ccn2C)c1`, the MIC with Kl. pneumoniae Y-4* is 0.78 µg/mL (≈ 2.08 µM); with St. aureus F-137*, no more than 0.05 µg/mL; in the experiment with Ps. aeruginosa GN3379*, 6.25 µg/mL (≈ 16.7 µM); in the experiment on E. coli TK-3*, 0.2 µg/mL (≈ 0.534 µM); in the experiment with Pro. vulgaris GN3027 it was 0.1 µg/mL (≈ 0.267 µM); in the experiment on Ent. cloacae IID977 it was 0.39 µg/mL (≈ 1.04 µM). Moreover, the MIC is no more than 0.05 µg/mL in the experiment on St. aureus FDA209P (setting [2]); 0.78 µg/mL (≈ 2.08 µM) in the experiment with Pro. morganii T-216 (setting [1]); 3.13 µg/mL (≈ 8.36 µM) in the experiment with Ps. aeruginosa S-68; 0.05 µg/mL (≈ 0.134 µM) with E. coli TK-111; 3.13 µg/mL (≈ 8.36 µM) with Ps. aeruginosa IFO3445; 0.78 µg/mL (≈ 2.08 µM) in the experiment with Pro. mirabilis T-111 (setting [3]). In addition, the MIC is no more than 0.05 µg/mL in the experiment with E. coli NIHJ JC-2 (setting [4]); no more than 0.05 µg/mL in the experiment on Aci. antitratus A-6; 0.2 µg/mL (≈ 0.534 µM) in the experiment with Kl. pneumoniae Y-50; 0.78 µg/mL (≈ 2.08 µM) in the experiment on Kl. pneumoniae Y-41; 0.39 µg/mL (≈ 1.04 µM) with Pro. vulgaris GN76**; 0.39 µg/mL (≈ 1.04 µM) with Ps. aeruginosa GN918** (20 h, read-out: MIC). Besides, the MIC in the experiment with E. coli GN5482** (setting [5]) is no more than 0.05 µg/mL.
